Laboratory results from patent US7655392B2, “Quenching methods for red blood cell inactivation process” (priority 2004, dated 2010).
Where two headings read alike, the source gives them in different places.

What was measured:
red blood cells = test system: red blood cells
Text: Methods for determining ATP, 2,3-DPG, glucose, hemoglobin, hemolysis, and potassium are available in the art. See for example, Davey et al., Transfusion, 32:525-528 (1992), the disclosure of which is incorporated herein. Methods for determining red blood cell function are also described in Greenwalt et al., Vox Sang, 58:94-99 (1990); Hogman et al., Vox Sang, 65:271-278 (1993); and Beutler et al., Blood, Vol. 59 (1982) the disclosures of which are incorporated herein by reference. For example, intracellular ATP and intracellular 2,3-DPG are measured using a Sigma ATP kit or 2,3-DPG kit (Sigma, St. Louis, Mo.). The ATP kit is used following Sigma procedure No. 366-UV, the disclosure of which is hereby incorporated by reference. […] The extracellular pH is measured by centrifuging the cells at 4° C. for 15 minutes at 12,000×g and removing the supernatant, for which the pH is measured using a standard pH meter at room temperature (e.g. Beckman, Epoxy Calomel electrode). For the intracellular pH, the remaining pellet is capped in the centrifuge tube and stored at about −80° C. for at least 2 hours. This is then lysed by the addition of deionized water. […] Measurements can be made shortly after treatment and as a function of post treatment storage, for example storage for up to 42 days.
Full units of red cell concentrates (Interstate Blood Bank, Inc., Memphis, Tenn.) were leukoreduced. A volume of 200 mL of this RCC (80% hematocrit) was mixed with 94 mL of Erythrosol or 100 mL of Adsol (Baxter Healthcare Corp., Deerfield, Ill.) as control (unit 1). A volume of 20 mL 8% dextrose was used to dissolve PIC-1 (mg) and acid glutathione (mg) and added to one unit to provide 0.2 mM PIC-1 and 2 mM glutathione (unit 2). […] For the glutathione, 1.2 mL of 10 N NaOH was added (2 equivalents). The PIC-1 was mixed with the unit, followed 1 minute later (unit 3) or 5 minutes later (unit 4) by glutathione. For unit 5, neutralized glutathione was mixed first, followed 10 minutes later by the PIC-1. […] All units were mixed by grasping the ends of the blood bag and mixing in a FIG. 8 motion 30 times. These were then incubated at room temperature for 20 hours total. A compound adsorption device (CAD), comprising a polymeric resin contained within a mesh pouch, was used for all but the control sample. This device is intended to remove residual PIC-1, PIC-1 breakdown products, and glutathione from the samples. Samples were incubated for 8 hours, then transferred to a second blood bag containing the CAD and incubated for an additional 12 hours. Following the room temperature incubation, samples were transferred to a refrigerator (4° C.) and stored up to 43 days. Aliquots were removed from each unit 12 hours and 20 hours post mixing, and every week thereafter. Aliquots were analyzed for total hemoglobin, pH, intracellular ATP, plasma hemoglobin, potassium, extracellular glucose and extracellular lactate.

Serratia marcescens = type: cell-based
[1] = 0.2 mM PIC-1+2 mM glutathione, 0.9 eq base, formulated together
[2] = 0.2 mM PIC-1+20 mM glutathione, 0 eq base, formulated together
[3] = 0.2 mM PIC-1+20 mM glutathione, 0.9 eq base, formulated together (PIC-1 precipitated)
[4] = 0.2 mM PIC-1+20 mM glutathione, 1.5 eq base, formulated together (PIC-1 precipitated)
[5] = 0.2 mM PIC-1+20 mM glutathione, 2 eq base, formulated together (PIC-1 precipitated)
[6] = 0.2 mM PIC-1 first, 20 mM glutathione+2 eq base shortly after (sequential)

**Q.** What does the source list for O=C(CCNc1c2ccccc2nc2ccccc12)OCCN(CCCl)CCCl [PIC-1]?
**A.** Percent Hemolysis (red blood cells; 16B day 0, sample 2: standard 0.2 mM PIC-1+2 mM GSH): 0.22%; Percent Hemolysis (red blood cells; 16B day 0, sample 3: 0.2 mM PIC-1, 1' delay, 20 mM GSH+2 eq base): 0.19%; Percent Hemolysis (red blood cells; 16B day 0, sample 4: 0.2 mM PIC-1, 5' delay, 20 mM GSH+2 eq base): 0.19%; Percent Hemolysis (red blood cells; 16B day 0, sample 5: 20 mM GSH+2 eq base, 10' delay, 0.2 mM PIC-1): 0.19%; Percent Hemolysis (red blood cells; 16B day 0.5, sample 2: standard 0.2 mM PIC-1+2 mM GSH): 0.24%; Percent Hemolysis (red blood cells; 16B day 0.5, sample 3: 0.2 mM PIC-1, 1' delay, 20 mM GSH+2 eq base): 0.16%; Percent Hemolysis (red blood cells; 16B day 0.5, sample 4: 0.2 mM PIC-1, 5' delay, 20 mM GSH+2 eq base): 0.25%; Percent Hemolysis (red blood cells; 16B day 0.5, sample 5: 20 mM GSH+2 eq base, 10' delay, 0.2 mM PIC-1): 0.24%; Percent Hemolysis (red blood cells; 16B day 0.8, sample 2: standard 0.2 mM PIC-1+2 mM GSH): 0.46%; Percent Hemolysis (red blood cells; 16B day 0.8, sample 3: 0.2 mM PIC-1, 1' delay, 20 mM GSH+2 eq base): 0.40%; Percent Hemolysis (red blood cells; 16B day 0.8, sample 4: 0.2 mM PIC-1, 5' delay, 20 mM GSH+2 eq base): 0.48%; Percent Hemolysis (red blood cells; 16B day 0.8, sample 5: 20 mM GSH+2 eq base, 10' delay, 0.2 mM PIC-1): 0.47%; Percent Hemolysis (red blood cells; 16B day 7, sample 2: standard 0.2 mM PIC-1+2 mM GSH): 0.62%; Percent Hemolysis (red blood cells; 16B day 7, sample 3: 0.2 mM PIC-1, 1' delay, 20 mM GSH+2 eq base): 0.35%; Percent Hemolysis (red blood cells; 16B day 7, sample 4: 0.2 mM PIC-1, 5' delay, 20 mM GSH+2 eq base): 0.52%; Percent Hemolysis (red blood cells; 16B day 7, sample 5: 20 mM GSH+2 eq base, 10' delay, 0.2 mM PIC-1): 0.57%; Percent Hemolysis (red blood cells; 16B day 14, sample 2: standard 0.2 mM PIC-1+2 mM GSH): 0.69%; Percent Hemolysis (red blood cells; 16B day 14, sample 3: 0.2 mM PIC-1, 1' delay, 20 mM GSH+2 eq base): 0.50%; Percent Hemolysis (red blood cells; 16B day 14, sample 4: 0.2 mM PIC-1, 5' delay, 20 mM GSH+2 eq base): 0.52%; Percent Hemolysis (red blood cells; 16B day 14, sample 5: 20 mM GSH+2 eq base, 10' delay, 0.2 mM PIC-1): 0.55%; Percent Hemolysis (red blood cells; 16B day 22, sample 2: standard 0.2 mM PIC-1+2 mM GSH): 0.87%; Percent Hemolysis (red blood cells; 16B day 22, sample 3: 0.2 mM PIC-1, 1' delay, 20 mM GSH+2 eq base): 0.59%; Percent Hemolysis (red blood cells; 16B day 22, sample 4: 0.2 mM PIC-1, 5' delay, 20 mM GSH+2 eq base): 0.62%; Percent Hemolysis (red blood cells; 16B day 22, sample 5: 20 mM GSH+2 eq base, 10' delay, 0.2 mM PIC-1): 0.63%; Percent Hemolysis (red blood cells; 16B day 28, sample 2: standard 0.2 mM PIC-1+2 mM GSH): 0.86%; Percent Hemolysis (red blood cells; 16B day 28, sample 3: 0.2 mM PIC-1, 1' delay, 20 mM GSH+2 eq base): 0.63%; Percent Hemolysis (red blood cells; 16B day 28, sample 4: 0.2 mM PIC-1, 5' delay, 20 mM GSH+2 eq base): 0.64%; Percent Hemolysis (red blood cells; 16B day 28, sample 5: 20 mM GSH+2 eq base, 10' delay, 0.2 mM PIC-1): 0.65%; Percent Hemolysis (red blood cells; 16B day 35, sample 2: standard 0.2 mM PIC-1+2 mM GSH): 0.99%; Percent Hemolysis (red blood cells; 16B day 35, sample 3: 0.2 mM PIC-1, 1' delay, 20 mM GSH+2 eq base): 0.74%; Percent Hemolysis (red blood cells; 16B day 35, sample 4: 0.2 mM PIC-1, 5' delay, 20 mM GSH+2 eq base): 0.76%; Percent Hemolysis (red blood cells; 16B day 35, sample 5: 20 mM GSH+2 eq base, 10' delay, 0.2 mM PIC-1): 0.71%; Percent Hemolysis (red blood cells; 16B day 43, sample 2: standard 0.2 mM PIC-1+2 mM GSH): 1.17%; Percent Hemolysis (red blood cells; 16B day 43, sample 3: 0.2 mM PIC-1, 1' delay, 20 mM GSH+2 eq base): 0.82%; Percent Hemolysis (red blood cells; 16B day 43, sample 4: 0.2 mM PIC-1, 5' delay, 20 mM GSH+2 eq base): 0.90%; Percent Hemolysis (red blood cells; 16B day 43, sample 5: 20 mM GSH+2 eq base, 10' delay, 0.2 mM PIC-1): 0.83%; Log S. marcescens reduction (Serratia marcescens; [1]): 4.27 Log; Log S. marcescens titer (Serratia marcescens; [1]): 2.8 Log; Log S. marcescens reduction (Serratia marcescens; [2]): 2.40 Log; Log S. marcescens titer (Serratia marcescens; [2]): 4.6 Log; Log S. marcescens reduction (Serratia marcescens; [3]): 2.26 Log; Log S. marcescens titer (Serratia marcescens; [3]): 4.8 Log; Log S. marcescens reduction (Serratia marcescens; [4]): 1.66 Log; Log S. marcescens titer (Serratia marcescens; [4]): 5.4 Log; Log S. marcescens reduction (Serratia marcescens; [5]): 0.76 Log; Log S. marcescens titer (Serratia marcescens; [5]): 6.3 Log; Log S. marcescens reduction (Serratia marcescens; [6]): 3.02 Log; Log S. marcescens titer (Serratia marcescens; [6]): 4.0 Log
